Assay results as given in publication PMC2749490 (Bioorganic & medicinal chemistry, 2009).
Where two headings read alike, the source gives them in different places. *1 amine or outer side, *2 acyl side, *3 side chain or, on linkers, in order; H or OH if unused. Where a SMILES comes first, the peptide text is derived from it. Bridges are numbered along the chain shown (N, C = ends). Where no end group is shown, it is not given here. [ ]: non-standard residue; d: D form. The star is where a group is joined. Staurosporine = CO[C@@H]1[C@H](N(C)*)C[C@H]2O[C@]1(C)n1c3ccccc3c3c4c(c5c6ccccc6n2c5c31)C(=O)NC4; Suc = O=C(CCC(=O)[*:2])[*:1]; Dap = NC[C@H](N)C(=O)O; βAla = NCCC(=O)O

Tests used:
[1] = target: T1, cAMP-dependent protein kinase (PKA) (Homo sapiens, UniProt P17612); settings: earlier proof-of-principle studies; cited from earlier work
[2] = target: T2, PKA (Homo sapiens, UniProt P17612); assay type: biochemical; settings: versus Kemptide
[3] = target: T1, cAMP-dependent protein kinase (PKA); test: PKA inhibitor IC50 determination; assay type: biochemical
[4] = target: T2, PKA; test: PKA kinase assays in the presence of 7.5 mM DTT; assay type: biochemical

cyclo(CTFRVFGC)G [1b]
IC50 [1]: 57 µM

cyclo(CTFRVFGC)G (CTFRVFGCG; disulfide 1-8 (inferred)) [1b]
mode of inhibition with respect to peptide substrate (best-fit model) [2]: noncompetitive

Nc1ncnc2c1ncn2[C@@H]1O[C@H](C(=O)O)[C@@H](O)[C@H]1O [6a]
IC50 [3]: > 1000 µM

CO[C@@H]1[C@H](N(C)C(=O)CCC(=O)NCCC(=O)NCCC(=O)NCCC(=O)NCCC(=O)NCCC(=O)NCCC(=O)NCCC(=O)N[C@H]2CC(=O)NC[C@@H](C(=O)NCC(N)=O)NC(=O)CNC(=O)[C@H](Cc3ccccc3)NC(=O)[C@H](C(C)C)NC(=O)[C@H](CCCNC(=N)N)NC(=O)[C@H](Cc3ccccc3)NC(=O)[C@H]([C@@H](C)O)NC2=O)C[C@H]2O[C@]1(C)n1c3ccccc3c3c4c(c5c6ccccc6n2c5c31)C(=O)NC4 [compound 7] ({Staurosporine-Suc-βAla-βAla-βAla-βAla-βAla-βAla-βAla}-DTFRVFG[Dap]G-NH2; lactam 1-8)
sensitivity to reducing conditions [4]: insensitive to reducing conditions

CC(C)[C@@H]1NC(=O)[C@H](CCCNC(=N)N)NC(=O)[C@H](Cc2ccccc2)NC(=O)[C@H]([C@@H](C)O)NC(=O)[C@@H](NC(=O)CCNC(=O)CCNC(=O)CCNC(=O)CCNC(=O)CCNC(=O)CCNC(=O)CCNC(=O)[C@H]2O[C@@H](n3cnc4c(N)ncnc43)[C@H](O)[C@@H]2O)CSSC[C@@H](C(=O)NCC(N)=O)NC(=O)CNC(=O)[C@H](Cc2ccccc2)NC1=O [compound 6] (HELM PEPTIDE1{[Nc1ncnc2c1ncn2[C@@H]1O[C@H](C(=O)[*:2])[C@@H](O)[C@H]1O].[bAla].[bAla].[bAla].[bAla].[bAla].[bAla].[bAla].C.T.F.R.V.F.G.C.G.[am]}$PEPTIDE1,PEPTIDE1,9:R3-16:R3$$$V2.0)
improvement from the adenosine derivative 6a ([3]; ratio of PKA IC50 values): > 300 fold
